# Active and inactive are the calls of the source.
# Key:
# [1] = biological target: T1, Sphingosine 1-phosphate receptor 4 (Homo sapiens, UniProt O95977); assay: Late-stage fluorescence dose response cell-based assay to identify agonists of the Sphingosine 1-Phosphate Receptor 4 (S1P4): purchased compounds EC50. [Related pubchem assays (depositor defined):AID1509, AID1523, AID1563, AID1686, AID1701, AID1801]; assay type: functional
# T1 sequence (O95977 whole entry): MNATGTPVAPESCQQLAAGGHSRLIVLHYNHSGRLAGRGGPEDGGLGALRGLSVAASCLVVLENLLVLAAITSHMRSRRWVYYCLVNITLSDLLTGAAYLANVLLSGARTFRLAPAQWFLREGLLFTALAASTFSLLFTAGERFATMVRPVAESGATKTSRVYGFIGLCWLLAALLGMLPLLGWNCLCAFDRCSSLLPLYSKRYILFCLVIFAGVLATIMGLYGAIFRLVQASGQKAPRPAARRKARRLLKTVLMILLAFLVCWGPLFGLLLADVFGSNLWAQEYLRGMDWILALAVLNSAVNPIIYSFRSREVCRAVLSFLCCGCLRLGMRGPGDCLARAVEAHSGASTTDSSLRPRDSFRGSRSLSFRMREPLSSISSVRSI
# Troponin, cardiac muscle = Troponin, cardiac muscle (Homo sapiens, UniProt P19429+P45379+P63316); assay: Fluorescence-based biochemical high throughput dose response assay for activators of the calcium sensitivity of cardiac Regulated Thin Filaments (RTF). [Related pubchem assays (depositor defined):AID493008, AID493018, AID504382, AID504383]; assay type: protein-complex assay
# SUMO-activating enzyme [2] = biological target: T2, SUMO-activating enzyme (Homo sapiens, UniProt Q9UBT2); assay: SUMOylation inhibitor hit validation, confirmation, SUMOylation inhibitor project, biochemical, AlphaScreen (AID 2018); assay type: functional
# [3] = biological target: T3, Runt-related transcription factor 1/Core-binding factor subunit beta (Homo sapiens, UniProt Q01196+Q13951); assay: inhibitors of RUNX1 Runt–CBFb-SMMHC binding, primary screen, biochemical, FRET, Cerulean-Runt, Venus-CBFb-SMMHC, uHTS (AID 1434); assay type: protein assay;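 also: partner is the CBFb-SMMHC leukemia fusion protein rather than wild-type CBFb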
# SUMO-activating enzyme [4] = biological target: T2, SUMO-activating enzyme; assay: inhibitors of in vitro SUMOylation cascade, primary screen, biochemical, HTRF, uHTS (AID 2006); assay type: protein-complex assay
# [5] = biological target: T4, Corticotropin-releasing factor receptor 2/Corticotropin-releasing factor-binding protein (Homo sapiens, UniProt P24387+Q13324); assay: activators of CRF receptor 2 with binding protein – uHTS hits, confirmation (AID 602473); assay type: functional; settings: read-out: EC50_Mean
# T4 sequence (Q13324 whole entry): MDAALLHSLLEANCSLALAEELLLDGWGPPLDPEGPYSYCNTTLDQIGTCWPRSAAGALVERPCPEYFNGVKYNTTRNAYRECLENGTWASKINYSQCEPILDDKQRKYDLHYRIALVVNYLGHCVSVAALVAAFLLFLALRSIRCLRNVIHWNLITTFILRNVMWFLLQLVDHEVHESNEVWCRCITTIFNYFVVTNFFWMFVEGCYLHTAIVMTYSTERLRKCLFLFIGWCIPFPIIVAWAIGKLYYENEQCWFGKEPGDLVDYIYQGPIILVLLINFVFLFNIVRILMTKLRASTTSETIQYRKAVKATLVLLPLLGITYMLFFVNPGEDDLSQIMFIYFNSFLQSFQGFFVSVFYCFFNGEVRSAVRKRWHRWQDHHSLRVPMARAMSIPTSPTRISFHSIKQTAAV
# T4 sequence (P24387 whole entry): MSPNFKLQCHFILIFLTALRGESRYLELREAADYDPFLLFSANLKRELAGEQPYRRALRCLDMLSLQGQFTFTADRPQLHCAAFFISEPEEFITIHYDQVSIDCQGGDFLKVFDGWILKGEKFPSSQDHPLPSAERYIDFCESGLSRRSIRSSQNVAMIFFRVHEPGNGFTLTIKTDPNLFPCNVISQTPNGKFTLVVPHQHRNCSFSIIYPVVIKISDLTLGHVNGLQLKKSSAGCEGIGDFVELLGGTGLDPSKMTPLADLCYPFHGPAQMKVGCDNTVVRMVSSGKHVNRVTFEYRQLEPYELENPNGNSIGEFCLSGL
# [6] = biological target: T3, Runt-related transcription factor 1/Core-binding factor subunit beta; assay: inhibitors of RUNX1 Runt–CBFb-SMMHC binding, biochemical, TR-FRET (AID 1438); assay type: protein assay
# [7] = biological target: DNA dC->dU-editing enzyme APOBEC-3G (Homo sapiens, UniProt Q9HC16); assay: Dose Response confirmation of small molecule APOBEC3G DNA Deaminase Inhibitors via a fluorescence-based single-stranded DNA deaminase assay. [Related pubchem assays (depositor defined):AID493012, AID493028]; assay type: functional
# [8] = biological target: DNA dC->dU-editing enzyme APOBEC-3A (Homo sapiens, UniProt P31941); assay: APOBEC3A DNA deaminase inhibitors, dose response, biochemical (AID 504722); assay type: functional
smiles,measurement,setting,value
CCCc1ccc(C(=O)C(C)OC(=O)c2c(C)nn(Cc3ccccc3)c2Cl)cc1 (centres undefined),EC50,[1],> 50 µM (inactive)
CCOc1cc(N2CCOCC2)c(OCC)cc1NC(=O)CCS(=O)(=O)c1ccc(Cl)cc1,EC50,"Troponin, cardiac muscle",> 71.5 µM (inactive)
Cc1ccc(S(=O)(=O)c2cc3c(=O)n4ccccc4nc3n(Cc3ccco3)c2=N)cc1,IC50,SUMO-activating enzyme [2],13.4 µM (active)
same,IC50,[3],5.08 µM (active)
same,IC50,SUMO-activating enzyme [4],3.93 µM (active)
same,EC50,[5],> 53 µM (inactive)
same,IC50,[6],58.6 µM (inactive)
FC(F)Oc1ccc(/C=N/n2c(S)nnc2Cc2ccc(Br)cc2)cc1,IC50,[7],6.93 µM (active)
same,IC50,[8],> 100 µM (inactive)
